Results as given in ChEMBL document CHEMBL1777689 (Bioorg Med Chem Lett, 2011).
pEC50, pIC50: −log10 of the molar value. Values after ≈ are worked out from the molar mass of the structure shown. Active and inactive are the calls of the source. The rule behind the calls is not given here.

Columns and labels:
[1] = test system: HCT-116;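 also: antiproliferative effect on human HCT116 cells, read out by luminescence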
[2] = molecular target: Voltage-gated inwardly rectifying potassium channel KCNH2 (Homo sapiens, UniProt Q12809)
[3] = Half life in human liver microsomes; type: ADME, Microsome
[4] = molecular target: Heat shock protein HSP 90-alpha (Homo sapiens, UniProt P07900)
[5] = Half life in rat liver microsomes; type: ADME, Microsome
[6] = molecular target: CYP3A4 (Homo sapiens, UniProt P08684); assay: Inhibition of CYP3A4 at 3 uM; type: ADME
[7] = molecular target: CYP2C9 (Homo sapiens, UniProt P11712); assay: Inhibition of CYP2C9 at 3 uM; type: ADME
[8] = molecular target: CYP2D6 (Homo sapiens, UniProt P10635); assay: Inhibition of CYP2D6 at 3 uM; type: ADME
[9] = Half life in mouse liver microsomes; type: ADME, Microsome
[10] = Aqueous solubility of the compound; type: physicochemical; settings: buffer
[11] = molecular target: Tyrosine-protein kinase Fyn (Homo sapiens, UniProt P06241); assay: Inhibition of FYN
[12] = AUC (0 to infinity) in CD-1 mouse at 2 mg/kg, iv; type: ADME, organism-based; design: time infinity, dose 2 mg/kg, route intravenous; settings: plasma
[13] = Half life in CD-1 mouse at 2 mg/kg, iv; type: ADME, organism-based; design: dose 2 mg/kg, route intravenous; settings: in vivo
[14] = Half life in CD-1 mouse at 10 mg/kg, po; type: ADME, organism-based; design: dose 10 mg/kg, route oral; settings: in vivo
[15] = test system: U-87MG ATCC; settings: Homo sapiens
[16] = Volume of distribution at steady state in CD-1 mouse at 2 mg/kg, iv; type: ADME, organism-based; design: dose 2 mg/kg, route intravenous; settings: in vivo, read-out: Vdss
[17] = molecular target: Proto-oncogene tyrosine-protein kinase Src (Homo sapiens, UniProt P12931); assay: Inhibition of SRC-related membrane-associated tyrosine kinase
[18] = Plasma clearance in CD-1 mouse at 2 mg/kg, iv; type: ADME, organism-based; design: dose 2 mg/kg, route intravenous
[19] = AUC (0 to infinity) in CD-1 mouse at 10 mg/kg, po; type: ADME, organism-based; design: time infinity, dose 10 mg/kg, route oral; settings: plasma
[20] = test system: U-87MG ATCC; settings: Homo sapiens; remark: listed apart in the source
[21] = Bioavailability in CD-1 mouse at 10 mg/kg, po; settings: in vivo
[22] = test system: U-87MG ATCC; settings: Homo sapiens; remark: listed apart in the source

Chain of CYP2C9 (P11712 whole entry): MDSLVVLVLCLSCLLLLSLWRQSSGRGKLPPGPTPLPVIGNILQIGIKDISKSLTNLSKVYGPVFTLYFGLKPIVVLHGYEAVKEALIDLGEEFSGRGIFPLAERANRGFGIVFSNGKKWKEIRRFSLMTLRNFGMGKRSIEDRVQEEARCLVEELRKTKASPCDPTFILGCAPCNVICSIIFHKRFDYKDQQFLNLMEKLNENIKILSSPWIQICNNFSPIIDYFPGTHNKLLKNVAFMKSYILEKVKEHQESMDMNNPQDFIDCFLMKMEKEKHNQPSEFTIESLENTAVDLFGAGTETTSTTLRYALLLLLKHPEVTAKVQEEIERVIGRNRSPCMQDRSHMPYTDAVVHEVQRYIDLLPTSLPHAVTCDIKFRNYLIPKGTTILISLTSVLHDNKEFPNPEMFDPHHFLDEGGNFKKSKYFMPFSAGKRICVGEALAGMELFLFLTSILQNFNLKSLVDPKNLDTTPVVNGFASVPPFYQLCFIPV
Chain of CYP2D6 (P10635 whole entry): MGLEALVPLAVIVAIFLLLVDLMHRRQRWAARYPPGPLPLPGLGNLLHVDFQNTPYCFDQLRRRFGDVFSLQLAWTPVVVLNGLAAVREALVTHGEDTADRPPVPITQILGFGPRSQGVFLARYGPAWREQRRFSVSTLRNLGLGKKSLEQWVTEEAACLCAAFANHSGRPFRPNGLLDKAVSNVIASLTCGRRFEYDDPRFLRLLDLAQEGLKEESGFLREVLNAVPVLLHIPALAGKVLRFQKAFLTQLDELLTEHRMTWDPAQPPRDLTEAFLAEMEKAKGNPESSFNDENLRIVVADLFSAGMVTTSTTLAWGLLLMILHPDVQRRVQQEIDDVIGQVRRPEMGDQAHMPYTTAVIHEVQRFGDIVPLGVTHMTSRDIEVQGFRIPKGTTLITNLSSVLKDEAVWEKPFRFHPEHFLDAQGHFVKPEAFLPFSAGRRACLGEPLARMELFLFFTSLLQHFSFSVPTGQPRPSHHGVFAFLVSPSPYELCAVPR
Chain of CYP3A4 (P08684 whole entry): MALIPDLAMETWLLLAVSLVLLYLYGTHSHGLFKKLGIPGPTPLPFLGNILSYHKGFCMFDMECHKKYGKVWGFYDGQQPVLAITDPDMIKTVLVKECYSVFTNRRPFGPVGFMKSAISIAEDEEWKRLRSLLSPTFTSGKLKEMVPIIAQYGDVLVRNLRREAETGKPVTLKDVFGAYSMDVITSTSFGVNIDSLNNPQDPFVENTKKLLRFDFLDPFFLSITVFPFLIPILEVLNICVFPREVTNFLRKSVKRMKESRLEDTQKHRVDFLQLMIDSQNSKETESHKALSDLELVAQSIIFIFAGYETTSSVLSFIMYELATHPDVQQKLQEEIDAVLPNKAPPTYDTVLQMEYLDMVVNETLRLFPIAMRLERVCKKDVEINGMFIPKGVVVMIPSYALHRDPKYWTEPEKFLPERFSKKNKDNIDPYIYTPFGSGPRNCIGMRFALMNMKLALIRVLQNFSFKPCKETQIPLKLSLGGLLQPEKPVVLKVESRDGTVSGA
Chain of Voltage-gated inwardly rectifying potassium channel KCNH2 (Q12809 whole entry): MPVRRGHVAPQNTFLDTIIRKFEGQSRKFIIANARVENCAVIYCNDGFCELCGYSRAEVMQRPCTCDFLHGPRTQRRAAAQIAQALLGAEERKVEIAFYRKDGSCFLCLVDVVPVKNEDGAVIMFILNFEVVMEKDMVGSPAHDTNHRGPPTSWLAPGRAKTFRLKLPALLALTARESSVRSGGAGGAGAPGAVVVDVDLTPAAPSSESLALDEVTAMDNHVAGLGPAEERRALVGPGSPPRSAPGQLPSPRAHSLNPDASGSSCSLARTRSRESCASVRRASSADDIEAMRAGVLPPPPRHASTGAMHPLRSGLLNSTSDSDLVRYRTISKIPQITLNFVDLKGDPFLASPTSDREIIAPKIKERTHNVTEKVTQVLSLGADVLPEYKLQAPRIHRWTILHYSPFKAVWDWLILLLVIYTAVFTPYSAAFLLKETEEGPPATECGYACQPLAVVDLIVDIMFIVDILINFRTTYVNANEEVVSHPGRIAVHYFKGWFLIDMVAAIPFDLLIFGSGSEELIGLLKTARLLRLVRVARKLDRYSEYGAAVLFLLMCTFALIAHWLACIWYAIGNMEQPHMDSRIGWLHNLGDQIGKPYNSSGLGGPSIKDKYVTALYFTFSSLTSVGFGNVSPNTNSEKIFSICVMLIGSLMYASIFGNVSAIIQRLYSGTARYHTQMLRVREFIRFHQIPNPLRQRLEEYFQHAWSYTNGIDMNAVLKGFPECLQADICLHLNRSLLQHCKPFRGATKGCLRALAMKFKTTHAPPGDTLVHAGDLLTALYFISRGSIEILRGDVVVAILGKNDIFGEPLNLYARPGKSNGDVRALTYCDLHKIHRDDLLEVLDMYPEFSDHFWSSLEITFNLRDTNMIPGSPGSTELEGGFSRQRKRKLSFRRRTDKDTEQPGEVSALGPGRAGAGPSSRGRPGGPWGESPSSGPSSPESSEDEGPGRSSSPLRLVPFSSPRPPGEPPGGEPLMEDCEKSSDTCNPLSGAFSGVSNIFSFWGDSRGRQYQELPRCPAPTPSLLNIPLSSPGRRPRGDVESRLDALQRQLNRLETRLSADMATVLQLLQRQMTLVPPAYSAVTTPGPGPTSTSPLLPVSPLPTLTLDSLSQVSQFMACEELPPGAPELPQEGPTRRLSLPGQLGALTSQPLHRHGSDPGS
Chain of Proto-oncogene tyrosine-protein kinase Src (P12931 2-536 limits assumed): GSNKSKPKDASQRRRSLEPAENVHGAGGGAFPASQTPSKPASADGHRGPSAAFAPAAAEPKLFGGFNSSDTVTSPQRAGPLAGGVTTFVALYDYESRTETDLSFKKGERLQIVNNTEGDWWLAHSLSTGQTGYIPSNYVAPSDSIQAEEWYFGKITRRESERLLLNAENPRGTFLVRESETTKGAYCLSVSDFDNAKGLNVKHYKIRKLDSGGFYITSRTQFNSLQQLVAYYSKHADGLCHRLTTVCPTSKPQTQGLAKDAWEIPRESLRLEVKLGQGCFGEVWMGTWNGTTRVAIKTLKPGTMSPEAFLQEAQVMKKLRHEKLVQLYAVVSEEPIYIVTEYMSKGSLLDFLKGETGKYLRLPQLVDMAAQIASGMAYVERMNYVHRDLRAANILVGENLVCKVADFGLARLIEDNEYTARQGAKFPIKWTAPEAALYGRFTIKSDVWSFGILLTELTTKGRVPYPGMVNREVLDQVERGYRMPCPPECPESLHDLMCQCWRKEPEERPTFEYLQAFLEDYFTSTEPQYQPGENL
Chain of Tyrosine-protein kinase Fyn (P06241 whole entry): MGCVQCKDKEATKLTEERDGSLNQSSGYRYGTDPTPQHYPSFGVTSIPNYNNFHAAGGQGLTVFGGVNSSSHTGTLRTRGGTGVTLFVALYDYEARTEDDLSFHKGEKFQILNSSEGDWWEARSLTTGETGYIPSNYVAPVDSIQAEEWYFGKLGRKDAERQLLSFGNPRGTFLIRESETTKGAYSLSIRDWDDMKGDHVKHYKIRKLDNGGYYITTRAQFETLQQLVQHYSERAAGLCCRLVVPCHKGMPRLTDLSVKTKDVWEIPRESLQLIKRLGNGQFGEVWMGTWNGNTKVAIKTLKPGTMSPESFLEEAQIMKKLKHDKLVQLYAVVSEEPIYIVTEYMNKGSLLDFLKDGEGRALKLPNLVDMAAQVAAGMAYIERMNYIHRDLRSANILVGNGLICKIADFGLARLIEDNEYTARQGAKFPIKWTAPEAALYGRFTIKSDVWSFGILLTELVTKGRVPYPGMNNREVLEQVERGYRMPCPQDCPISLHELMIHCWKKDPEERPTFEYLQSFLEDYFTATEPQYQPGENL

Compound	pEC50 [1]	pIC50 [2]	half-life [3] [min]	pIC50 [4]	half-life [5] [min]	inhibition at 3 µM [6] [%]	inhibition at 3 µM [7] [%]	inhibition at 3 µM [8] [%]	half-life [9] [min]	solubility ([10]; read-out: solubility) [µg/mL]	other results
Cc1c2c(n3c1CCCN1C[C@@H](F)C[C@@H]1CNc1cc-3ccc1C(N)=O)CC(C)(C)CC2=O	7.22	4.79	4	7.21	2	77	46	9	5	3 (≈ 6.63 µM)	
Cc1c2c(n3c1CCCN1CCOC[C@@H]1CNc1cc-3ccc1C(N)=O)CC(C)(C)CC2=O	7.47	4.90	3	7.02	3	71	39	0	7	29 (≈ 64.4 µM)	
Cc1c2c(n3c1CCCN1CCC[C@@H]1CNc1cc-3ccc1C(N)=O)CC(C)(C)CC2=O		5.59			6		6			2320 (≈ 5350 µM)	pIC50 [11]: 4.66; AUC(0-inf) [12]: 1740 ng·h/mL; half-life [13]: 276 min; half-life [14]: 312 min; inhibition [15]: Active; Vd [16]: 5.3 L/kg; pIC50 [17]: < 4.30; clearance [18]: 19 mL/min/kg; AUC(0-inf) [19]: 6460 ng·h/mL; inhibition [20]: Active; bioavailability [21]: 74%; inhibition [22]: Active
Cc1c2c(n3c1CCCNC(=O)[C@H](C)Nc1cc-3ccc1C(N)=O)CC(C)(C)CC2=O	7.25		4	7.09	> 30	6	23	5	> 30	> 100	
Cc1c2c(n3c1CCCN1C[C@H](O)C[C@@H]1CNc1cc-3ccc1C(N)=O)CC(C)(C)CC2=O	6.72		3	6.82	10	64	9	33	7	67 (≈ 149 µM)	
CC(=O)N1CCN2CCCc3c(C)c4c(n3-c3ccc(C(N)=O)c(c3)NC[C@H]2C1)CC(C)(C)CC4=O	6.85	4.61	14	6.97	3	34	15	4	5	> 100	
Cc1c2c(n3c1CCCN1CCC[C@@H](C1)Nc1cc-3ccc1C(N)=O)CC(C)(C)CC2=O	7.41	5.47	2	7.11	8	76	74	12	3	16 (≈ 36.8 µM)	
Cc1c2c(n3c1CCN1CCC[C@@H]1CNc1cc-3ccc1C(N)=O)CC(C)(C)CC2=O	6.34			6.05	6	32	0	6		6 (≈ 14.3 µM)	
Cc1c2c(n3c1CCCN1C[C@@H](N4CCCC4)C[C@@H]1CNc1cc-3ccc1C(N)=O)CC(C)(C)CC2=O	5.61			6.30	5	34	3	69		71 (≈ 141 µM)	
Cc1c2c(n3c1CCCN1CCNC[C@H]1CNc1cc-3ccc1C(N)=O)CC(C)(C)CC2=O	5.73		> 30	5.48	> 30	1	12	3	> 30	> 100	
Cc1c2c(n3c1CCCN1CC[C@@H](C1)Nc1cc-3ccc1C(N)=O)CC(C)(C)CC2=O	6.17			6.01	5	70	25	23		49 (≈ 117 µM)	
CC(=O)N[C@H]1C[C@@H]2CNc3cc(ccc3C(N)=O)-n3c(c(C)c4c3CC(C)(C)CC4=O)CCCN2C1	5.59			6.20							
Cc1c2c(n3c1CCCN1CCCC[C@@H]1CNc1cc-3ccc1C(N)=O)CC(C)(C)CC2=O	7.49		8	6.90	3	77	0	16	27	52 (≈ 116 µM)	
Cc1c2c(n3c1CCCN1CCCC[C@@H]1[C@H](C)Nc1cc-3ccc1C(N)=O)CC(C)(C)CC2=O	7.17	5.82	3	6.77	7	55	4	4	6	35 (≈ 75.7 µM)	
Cc1c2c(n3c1CCCN1CC[C@@H](CNc4cc-3ccc4C(N)=O)C1)CC(C)(C)CC2=O	5.53			< 5.30							
Cc1c2c(n3c1CCC(=O)N1CCC[C@@H]1CNc1cc-3ccc1C(N)=O)CC(C)(C)CC2=O	6.51			6.73							
Cc1c2c(n3c1CCCN1CCC[C@H]1CNc1cc-3ccc1C(N)=O)CC(C)(C)CC2=O	5.94										solubility [10]: 66 µg/mL (≈ 152 µM)
Cc1c2c(n3c1CCCN1CC[C@H](CNc4cc-3ccc4C(N)=O)C1)CC(C)(C)CC2=O	7.00	6.36	23	6.70	21	53	2	0	> 30	> 100	
Cc1c2c(n3c1CCCCN1CCC[C@@H]1CNc1cc-3ccc1C(N)=O)CC(C)(C)CC2=O	6.63		5	6.52	8	67	0	2	11	> 100	
